Source: US20140066431A1, “Benzoxazepines as Inhibitors of PI3K/mTOR and Methods of Their Use and Manufacture” (Exelixis, Inc., priority 2010, published 2014)
Where two headings read alike, the source gives them in different places.

Columns and labels:
mTOR/GbL/Raptor (mTORC1) = mTOR/GbL/Raptor (mTORC1) (Homo sapiens, UniProt P42345); assay: mTOR/GbL/Raptor (mTORC1) ELISA assay; type: biochemical
Method: The measurement of mTORC1 enzyme activity was performed in an ELISA assay format following the phosphorylation of 4E-BP1 protein. All experiments were performed in the 384-well format. Generally, 0.5 μL DMSO containing varying concentrations of the test compound was mixed with 15 μL enzyme solution. Kinase reactions were initiated with the addition of 15 μL of substrates-containing solution. The assay conditions were as follows; 0.2 nM mTORC1, 10 μM ATP and 50 nM NHis-tagged 4E-BP1 in 20 mM Hepes, pH 7.2, 1 mM DTT, 50 mM NaCl, 10 mM MnCl2, 0.02 mg/mL BSA, 0.01% CHAPS, 50 mM β-glycerophosphate. Following an incubation of 120 minutes at ambient temperature, 20 μL of the reaction volume was transferred to a Ni-Chelate-coated 384-well plate. The binding step of the 4E-BP1 protein proceeded for 60 minutes, followed by washing 4 times each with 50 μL of Tris-buffered saline solution (TBS). Anti-phospho-4E-BP1 rabbit-IgG (20 μL, 1:5000) in 5% BSA-TBST (0.2% Tween-20 in TBS) was added and further incubated for 60 minutes. Incubation with a secondary HRP-tagged anti-IgG was similarly performed after washing off the primary antibody (4 washes of 50 μL). Following the final wash step with TBST, 20 μL of SuperSignal ELISA Femto (Pierce Biotechnology) was added and the luminescence measured using an EnVision plate reader.

[1] = system: MCF-7 cells (PI3Kα-E545K mutant); assay: pAKT (T308) ELISA assay, MCF-7; type: cell-based; conditions: Homo sapiens, MCF7
Method: MCF-7 cells (ATCC) cells were seeded at 24000 cells per well in 96-well plates (Corning, 3904) in DMEM (Cellgro) containing 10% FBS (Cellgro), 1% NEAA (Cellgro) and 1% penicillin-streptomycin (Cellgro). Cells were incubated at 37° C., 5% CO2 for 48 h, and the growth medium was replaced with serum-free DMEM or in medium containing 0.4% BSA. Serial dilutions of the test compound in 0.3% DMSO (vehicle) were added to the cells and incubated for 3 h. At the end of the incubation period, cells were stimulated for 10 minutes by the addition of L-IGF (Sigma, I-1271) at a final concentration of 100 ng/ml. Afterwards, media was discarded from cell plates and 110 μl/well of cold lysis buffer (see table below) were added. Cell plates were incubated on ice and then put on shaker in 4° C. cold room for 1 h. Two capture plates (Thermo Scientific, Reacti-bind plate, 15042) were prepared for each cell plate by pre-coating with capture Akt antibody from the two sandwich ELISA antibody pairs used (Cell Signaling Technology 7142 and 7144). The Akt capture antibodies were diluted 1:100 in PBS and […] of diluted capture antibody was added per well. […] After 1 minute incubation, chemiluminescence was read on a Wallac Victor2 1420 multilabel counter. IC50 values were determined based on the ratio of pAkt(T308) to total Akt1 signal for compound treated wells, normalized to the DMSO-treated control wells. […]

- IC50 (mTOR/GbL/Raptor (mTORC1); 4EBP1 as substrate for mTOR/GbL/raptor kinase, read-out: biochemical IC50 mTOR): 10.9 µM
- IC50 (mTOR/GbL/Raptor (mTORC1); Table 5, read-out: Biochemical IC50 mTOR): 10.9 µM
- IC50 ([1]; IGF1 stimulation, Table 5, read-out: pAKT (T308) IC50 MCF-7 PI3Kα E545K IGF1): 1.76 µM
- IC50 ([1]; PI3KαE545K, Table 6, read-out: Cellular pAKT (T308) IC50 MCF-7): > 30 µM
SMILES: Cc1cc(C(C)Nc2ccccc2)c2nc(N3CCOCC3)cc(=O)n2c1 (stereo not shown) [TGX-221, 7-methyl-2-(4-morpholinyl)-9-[1-(phenylamino)ethyl]-4H-pyrido[1,2-a]pyrimidin-4-one]
